Where two headings read alike, the source gives them in different places.
What was measured:
DNA = experiment: Ethidium bromide displacement assay, DNA binding and AT/GC selectivity; conditions: for Ratio (AT/GC): FI50 poly(dA.dT) / FI50 poly(dG.dC)
Description: (§1) Stock Solutions. A 10X Binding solution was prepared by combining 0.93 ml of an aqueous NaCl solution (5M), 2.0 ml of an aqueous Tris HCl (500 mM) solution, 0.1 ml of an EDTA solution (500 mM) and 46.97 ml of water. The resultant solution was 93 mM in NaCl, 20 mM in Tris HCl, and 1 mM in EDTA. Stock DNA solution were prepared as follows: Poly (dG.dC)-(dG.dC) (ε254=8.4/mM; 27-7910-02), poly (dA.dT)-(dA.dT) (ε262=6.6/mM; 27-7870-02), and lambda DNA (δ260-7.0/mM; 27-4111-01) were purchased from Pharmacia. Solutions were prepared by resuspending either poly (dG.dC)-(dG.dC) or poly (dA.dT)-(dA.dT)in 1 ml of 10X DNA Binding Solution. Lambda DNA is already in solution as purchased.
(§2) Determination of concentration of the stock DNA solutions. Poly (dG.dC) - (dG.dC), poly (dA.dt) - (dA.dt) and lambda DNA concentrations were determined as follows: 980 μl of 10X DNA Binding Solution was pipetted into a 1 ml cuvette. A blank was run on the UV spectrophotometer. 20 μl of the DNA stock of unknown concentration was then added into the cuvette. The sample was then scanned between 210 nm to 500 nm and the absorbance recorded at 254 nm for poly (dG.dC)-(dG.dC), at 262 nm for poly (dA.dT)-(dA.dT) and at 260 nm for lambda DNA. The solution was transferred to a clean tube. This procedure was followed for three different solutions with the absorbance taken as the average of the three. The concentration of poly (dG.dC)-(dG.dC) stock was calculated to be A254 /8.4×1000 (in μM). The concentration of poly (dA.dT) - (dA.dT) stock was calculated to be A262 /6.6×1000 (in μM). The concentration of lambda DNA stock was calculated to be A260 /7.0×1000 (in μM).
Ethidium Bromide Displacement Assay. The binding of the bis-naphthalimides to DNA and to synthetic polynucleotide duplexes was determined by an ethidium bromide displacement assay that measures the reduction of fluorescence when ethidium bromide is displaced from DNA (Baguley, 1981). The fluorescence intensity of a 3 ml solution containing 9.3 mM NaCl, 2 mM Tris-HCI (pH 7.0), 100 μM EDTA, 1 μM DNA (in nucleotides) and 1.26 μM ethidium bromide in a quartz cuvette was measured at the excitation (546 nm) and emission (600 nm) wavelengths on a Shimadzu RF5000U spectrofluorometer. Graded concentrations of agent were then added and the fluorescence intensity was measured. The concentration of compound required to reduce the fluorescence intensity by 50% of that of control (FI50) was determined. Therefore, the lower the FI50 the stronger the binding affinity a particular compound has for DNA. […]

B16 melanoma cell line = experiment: Growth inhibition (MTT), B16 melanoma cell line; type: cell-based, murine; conditions: for IC50: B16, 3 days incubation, MTT
Excerpt: (§3) P388 murine leukemic cell line was obtained from the DCT Tumor Repository (National Cancer Institute, Frederick Cancer Research and Development, Frederick Md. 21702). HT29 Human Colon Carcinoma cell line was obtained from the American Type Culture Collection (12301 Parklawn Drive, Rockville, Md. 20852). B16 Melanoma cell line was obtained from DuPont Merck Pharmaceutical Company (Glenolden, Pa. 19036). MCF-7 Human Breast Carcinoma cell line was a gift from Dr. K. Osborne (Department of Medicine, The University of Texas Health Science Center at San Antonio, San Antonio, Tex. 78284). All cell lines were incubated at 37° C. in a humidified atmosphere of 5% CO2 -95% air. Murine B16 melanoma cell line was grown in RPMI 1640 medium supplemented with 10% heat-inactivated fetal bovine serum, 2 mM L-glutamine, 50 units/ml penicillin, 50 μg/ml streptomycin, 25 μg/ml gentamycin, 0.75% sodium bicarbonate, 10 mM HEPES buffer (pH 7.4), and 0.06 mg/ml AntiPPLO. Murine P388 leukemic and the human HT-29 colon adenocarcinoma cell lines were maintained in RPMI 1640 medium supplemented with 10% heat-inactivated fetal bovine serum. MCF-7M human breast adenocarcinoma was maintained in IMEM medium supplemented with 5% non heat-inactivated fetal bovine serum and 1 nM insulin.
(§4) Exponentially growing cells (1-2×10^3 cells, unless specified otherwise) in 0.1 ml medium were seeded on day 0 in a 96-well microtiter plate. On day 1, 0.1 ml aliquots of medium containing graded concentrations of test compounds were added in duplicate to the cell plates. After incubation at 37° C. in a humidified incubator for 3 days (P388, B16) or 6 days (HT-29, MCF-7M), the plates were centrifuged briefly and 100 μl of the growth medium was removed. Cell cultures were incubated with 50 μl of 3-(4,5-dimethylthiazol-2-yl)-2,5-diphenyl-tetrazolium bromide [MTT, 1 mg/ml in Dulbecco's phosphate buffered saline (PBS)] for 4 hr at 37° C. The resulting purple formazan precipitate was solubilized with 200 μl of 0.04N HCl in isopropyl alcohol. Absorbance was monitored in a BioRad Model 3550 Microplate Reader at a test wavelength of 570 nm and a reference wavelength of 630 nm. The absorbance was transferred to a PC 486 computer. The IC50 values were determined by a computer program (EZ-ED50) that fit all of the data to the following four-parameterlogistic equation:
(§5) Y=((Am -Ao)/(1+(X/IC50)^n))+Ao
(§6) where Am is the absorbance of control cells, Ao is the absorbance of cells in the presence of highest agent concentration, Y is the observed absorbance, X is the agent concentration, IC50 is the concentration of agent that inhibits the cell growth by 50% of control cells (based on the absorbance) and n is the slope of the curve.

human cancers = conditions: literature; cited from earlier work
[1] = test system: P388 murine leukemic cell line; experiment: Growth inhibition (MTT), P388 murine leukemic cell line; type: cell-based; conditions: Mus musculus, 72 h, 3 days incubation
Excerpt: P388 murine leukemic cell line was obtained from the DCT Tumor Repository (National Cancer Institute, Frederick Cancer Research and Development, Frederick Md. 21702). HT29 Human Colon Carcinoma cell line was obtained from the American Type Culture Collection (12301 Parklawn Drive, Rockville, Md. 20852). B16 Melanoma cell line was obtained from DuPont Merck Pharmaceutical Company (Glenolden, Pa. 19036). MCF-7 Human Breast Carcinoma cell line was a gift from Dr. K. Osborne (Department of Medicine, The University of Texas Health Science Center at San Antonio, San Antonio, Tex. 78284). All cell lines were incubated at 37° C. in a humidified atmosphere of 5% CO2 -95% air. […]
Exponentially growing cells (1-2×10^3 cells, unless specified otherwise) in 0.1 ml medium were seeded on day 0 in a 96-well microtiter plate. […] Absorbance was monitored in a BioRad Model 3550 Microplate Reader at a test wavelength of 570 nm and a reference wavelength of 630 nm. The absorbance was transferred to a PC 486 computer. The IC50 values were determined by a computer program (EZ-ED50) that fit all of the data to the following four-parameterlogistic equation: […]

[2] = test system: MCF-7 human breast carcinoma cell line; experiment: Growth inhibition (MTT), MCF-7 human breast carcinoma cell line; type: cell-based; conditions: 6 days incubation
Excerpt: as §3, §4, §5, §6

[3] = test system: HT29 human colon carcinoma cell line; experiment: Growth inhibition (MTT), HT29 human colon carcinoma cell line; type: cell-based; conditions: 6 days incubation
Excerpt: as §3, §4, §5, §6

B16 melanoma = experiment: In vivo tumor inhibiting activity vs. B16 melanoma in B6D2F1 mice
Description: B16 Melanoma: B6D2F1 mice received i.p. inocula of B16 murine melanoma brei prepared from B16 tumors growing subcutaneously in mice (day 0). On day 1, rumored mice were treated with drugs or vehicle control; the route of drug administration and schedule were selected as appropriate for the study in question. If dosing information for agents was not available, the maximum tolerated dose (MTD) was determined in initial dose finding experiments in non-rumored mice. In a typical experiment, drugs were given at their MTD and 1/2 MTD doses i.p. on a daily×5 schedule.
The mean survival times of all groups were calculated, and results were expressed as mean survival of treated mice/mean survival of control mice (T/C)×100%. A T/C value of 150 means that the mice in the treated group lived 50% longer than those of the control group; this is sometimes referred to as the increase in life space, or ILS value.
Mice that survived for 60 days were considered long term survivors, or cures, in the B16 model. The universally accepted cut-off for activity in this model, which has been used for years by the National Cancer Institute, is T/C=125. Conventional use of B16 over the years has set the following levels of activity: T/C<125, no activity; T/C=125-150, weak activity; T/C=150-200, modest activity; T/C=200-300, high activity; T/C>300, with long term survivors, excellent, curative activity (Goldin et al., 1981).
Statistics were performed on the data using primarily the log rank p-value test.

Lambda DNA = experiment: Ethidium bromide displacement assay, Lambda DNA; type: binding; conditions: 50% reduction of ethidium bromide fluorescence, pH 7.0, read-out: FI50 (the source's name)
Description: as §1
as §2, with “A blank was run on the UV spectrophotometer. 20 μl of the DNA stock of unknown concentration was then added into the cuvette.” left out, “The solution was transferred to a clean tube.” left out, “The concentration of lambda DNA stock was calculated to be A260 /7.0×1000 (in μM).” left out

[4] = molecular target: poly-(dG.dC)-poly-(dG.dC); experiment: Ethidium bromide displacement assay, poly(dG.dC)-poly(dG.dC); type: binding; conditions: 50% reduction of ethidium bromide fluorescence, pH 7.0, read-out: FI50 (the source's name)
Description: as §1
as §2, with “A blank was run on the UV spectrophotometer. 20 μl of the DNA stock of unknown concentration was then added into the cuvette.” left out, “The solution was transferred to a clean tube.” left out, “The concentration of lambda DNA stock was calculated to be A260 /7.0×1000 (in μM).” left out

[5] = molecular target: poly-(dA.dT)-poly-(dA.dT); experiment: Ethidium bromide displacement assay, poly(dA.dT)-poly(dA.dT); type: binding; conditions: 50% reduction of ethidium bromide fluorescence, pH 7.0, read-out: FI50 (the source's name)
Description: as §1
as §2, with “A blank was run on the UV spectrophotometer. 20 μl of the DNA stock of unknown concentration was then added into the cuvette.” left out, “The solution was transferred to a clean tube.” left out, “The concentration of lambda DNA stock was calculated to be A260 /7.0×1000 (in μM).” left out

[6] = cited from earlier work
topoisomerase II = conditions: Hsiang et al., 1989; cited from earlier work

O=C1c2cccc3cc([N+](=O)[O-])cc(c23)C(=O)N1CCOCCOCCN1C(=O)c2cccc3cc([N+](=O)[O-])cc(c23)C1=O [Compound 19, 5-[2-(3-Nitronaphthalene-1,8-dicarboximido)ethoxy]-1-(3-nitronaphthalene-1,8-dicarboximido)-3-oxapentane]
DNA binding (in words) (DNA): did not bind to DNA
Ratio (AT/GC) (DNA): 1.7
in vitro anticancer activity against B16 melanoma (in words) (B16 melanoma cell line; B16 melanoma in vitro): potent anticancer activity against this melanoma type

O=C1c2c(O)ccc(O)c2C(=O)c2c(NCCNCCO)ccc(NCCNCCO)c21 [mitoxantrone]
clinical anti-tumor activity (human cancers): exhibit clinical anti-tumor activity

O=C1c2cccc3cc([N+](=O)[O-])cc(c23)C(=O)N1CCNCCOCCN1C(=O)c2cccc3cc([N+](=O)[O-])cc(c23)C1=O [Compound 6]
Displacement of ethidium bromide / decrease in fluorescence intensity (DNA; FIG. 1, graded concentrations): dose-dependent decrease in fluorescence intensity
IC50 [1]: 35 nM
IC50 (B16 melanoma cell line): 11 nM
IC50 [2]: 2.6 nM
IC50 [3]: 3 nM
Wt. Ch. (Day 7) (B16 melanoma; 15 mg/kg, q.d. × 5, i.p.): -7.4%
activity against B16 melanoma compared with DMP840 (B16 melanoma; comparator DMP840): more effective against B16 melanoma
activity compared with DMP840, compounds 22 and 23, and cytoxan (B16 melanoma; comparators DMP840, 22, 23, cytoxan): more active

COc1cc(NS(C)(=O)=O)ccc1Nc1c2ccccc2nc2ccccc12 [amsacrine]
clinical anti-tumor activity (human cancers): exhibit clinical anti-tumor activity

O=C1c2cccc3cc([N+](=O)[O-])cc(c23)C(=O)N1CCNCCNCCN1C(=O)c2cccc3cc([N+](=O)[O-])cc(c23)C1=O [Compound 22, 2,2'[1,2-ethanediylbis[imino(2,1-ethanediyl)]]-bis[5-nitro-1H-benz[de]isoquinoline-1,3-(2H)-dione] dimethanesulfonate]
IC50 (Lambda DNA): 53 nM
IC50 [4]: 48 nM
IC50 [5]: 787 nM
IC50 (B16 melanoma cell line): 4.3 nM
IC50 [2]: 0.53 nM
IC50 ([3]; Homo sapiens, HT-29, 144 h): 0.48 nM
Wt. Ch. (Day 7) (B16 melanoma; 2.5 mg/kg, q.d. × 5, i.p.): -0.17%

COc1cccc2c1C(=O)c1c(O)c3c(c(O)c1C2=O)C[C@@](O)(C(C)=O)C[C@@H]3O[C@H]1C[C@H](N)[C@H](O)[C@H](C)O1 [daunorubicin]
cardiomyopathy ([6]; human, in vivo): limited by an unusual cardiomyopathy

O=C1c2cccc3cc([N+](=O)[O-])cc(c23)C(=O)N1CCNCCOCCN1C(=O)c2cccc3cc([N+](=O)[O-])cc(c23)C1=O [Compound 5, 5-[2-(3-Nitronaphthalene-1,8-dicarboximido)ethylamino]-1-(3-nitronaphthalene-1,8-dicarboximido)-3-oxapentane]
IC50 (Lambda DNA): 241 nM
IC50 [4]: 71 nM
IC50 [5]: 5220 nM
Ratio (AT/GC) (DNA): 73.5
IC50 (B16 melanoma cell line; Mus musculus, B16, 72 h): 20 nM
IC50 [2]: 1 nM
IC50 ([3]; Homo sapiens, HT-29, 144 h): 3 nM

O=P1(N(CCCl)CCCl)NCCCO1 (centres unmarked) [Cytoxan]
Wt. Ch. (Day 7) (B16 melanoma; 300 mg/kg, q.d. × 1, i.p.): -6.6%

O=C1c2cccc3cc([N+](=O)[O-])cc(c23)C(=O)N1CCNCCNCCN1C(=O)c2cccc3cc([N+](=O)[O-])cc(c23)C1=O [Compound 23, 2,2'[1,2-ethanediylbis[imino(2,1-ethanediyl)]]-bis[5-nitro-1H-benz[de]isoquinoline-1,3-(2H)-dione] monomethanesulfonate]
IC50 [1]: 6 nM
IC50 (B16 melanoma cell line): 12.9 nM
IC50 [2]: 1.39 nM
IC50 [3]: 0.52 nM
Wt. Ch. (Day 7) (B16 melanoma; 2.5 mg/kg, q.d. × 5, i.p.): 0.95%

COc1cccc2c1C(=O)c1c(O)c3c(c(O)c1C2=O)C[C@@](O)(C(=O)CO)C[C@@H]3O[C@H]1C[C@H](N)[C@H](O)[C@H](C)O1 [doxorubicin]
cardiomyopathy ([6]; Calabresi and Chabner, 1990): limited by an unusual cardiomyopathy

O=C1c2c(O)cccc2-c2nn(CCNCCO)c3ccc(NCCNCCO)c1c23 [DuP 941]
clinical anti-tumor activity (human cancers): exhibit clinical anti-tumor activity

CN(C)CCN1C(=O)c2cccc3cc(N)cc(c23)C1=O [amonafide]
intercalator-stabilized-topoisomerase II-DNA cleavable complex formation (topoisomerase II): result in intercalator-stabilized-topoisomerase II-DNA cleavable complex formation
topoisomerase II inhibition (topoisomerase II): inhibit topoisomerase II
